System: patients after acute myocardial infarction
Experiment: Life quality, Seattle Angina Questionnaire (SAQ), same clinical trial
Type: in vivo, human
Conditions: 6 months after treatment
From the text: 3508 patients who were in accordance with the diagnostic standards of AMI for 28 days to 2 years and differentiated as Qi deficiency and blood stagnation syndrome by TCM were studied. 0.5 g Chinese medicine composition prepared by the method of EXAMPLE 1 (Coded as QSYQ) was administrated half an hour after meal, 3 times per day.
There were 19 questions in the Seattle angina questionnaire (SAQ), including 5 parts: physical limitation (PL), anginal stability (AS), anginal frequency (AF), treatment satisfaction (TS) and disease perception (DP). After being given necessary explanation by doctors, the questions were answered independently by patients.
They included the overall survival time, angina pectoris score, TCM symptom score and life quality score, where angina pectoris score, TCM symptom score and life quality score were evaluated at randomization, in 1st, 3rd, 6th, 9th, 12th month after treatment and 18th month after follow-up.
All evaluation results of SAQ were described during the period of observation, and Wilcoxon rank sum test was used for inter-group comparison.
The evaluation results in the SAQ were depicted in different observations, and inter-group comparison was tested by Wilcoxon Rank-sum test.

## CC(=O)Oc1ccccc1C(=O)O [Control group, aspirine]
FAS
  SAQ Question 1-3: Not limited, number of patients: 1358
  SAQ Question 1-3: Not limited, percent of patients: (77.87%)
  SAQ Question 1-3: Other reasons, number of patients: 11
  SAQ Question 1-3: Other reasons, percent of patients: (0.63%)
  SAQ Question 1-3: Severely limited, number of patients: 4
  SAQ Question 1-3: Severely limited, percent of patients: (0.23%)
  SAQ Question 1-3: Slightly limited, number of patients: 265
  SAQ Question 1-3: Slightly limited, percent of patients: (15.19%)
  SAQ Question 1-4: Mildly limited, number of patients: 314
  SAQ Question 1-4: Mildly limited, percent of patients: (18.00%)
  SAQ Question 1-4: Moderately limited, number of patients: 97
  SAQ Question 1-4: Moderately limited, percent of patients: (5.56%)
  SAQ Question 1-4: Not limited, number of patients: 731
  SAQ Question 1-4: Not limited, percent of patients: (41.92%)
  SAQ Question 1-4: Other reasons, number of patients: 13
  SAQ Question 1-4: Other reasons, percent of patients: (0.75%)
  SAQ Question 1-4: Severely limited, number of patients: 29
  SAQ Question 1-4: Severely limited, percent of patients: (1.66%)
  SAQ Question 1-4: Slightly limited, number of patients: 560
  SAQ Question 1-4: Slightly limited, percent of patients: (32.11%)
  SAQ Question 1-5: Mildly limited, number of patients: 292
  SAQ Question 1-5: Mildly limited, percent of patients: (16.75%)
  SAQ Question 1-5: Moderately limited, number of patients: 137
  SAQ Question 1-5: Moderately limited, percent of patients: (7.86%)
  SAQ Question 1-5: Not limited, number of patients: 755
  SAQ Question 1-5: Not limited, percent of patients: (43.32%)
  SAQ Question 1-5: Other reasons, number of patients: 13
  SAQ Question 1-5: Other reasons, percent of patients: (0.75%)
  SAQ Question 1-5: Severely limited, number of patients: 20
  SAQ Question 1-5: Severely limited, percent of patients: (1.15%)
  SAQ Question 1-5: Slightly limited, number of patients: 526
  SAQ Question 1-5: Slightly limited, percent of patients: (30.18%)
  SAQ Question 1-9: Mildly limited, % of cases: (19.93%)
  SAQ Question 1-9: Mildly limited, cases: 341
  SAQ Question 1-9: Moderately limited, % of cases: (20.86%)
  SAQ Question 1-9: Moderately limited, cases: 357
  SAQ Question 1-9: Not limited, % of cases: (3.39%)
  SAQ Question 1-9: Not limited, cases: 58
  SAQ Question 1-9: Other limited, % of cases: (6.20%)
  SAQ Question 1-9: Other limited, cases: 106
  SAQ Question 1-9: Severely limited, % of cases: (35.42%)
  SAQ Question 1-9: Severely limited, cases: 606
  SAQ Question 1-9: Slightly limited, % of cases: (14.20%)
  SAQ Question 1-9: Slightly limited, cases: 243
PP
  SAQ 2nd question: Clearly increased, % of cases: (0.21%)
  SAQ 2nd question: Clearly increased, cases: 3
  SAQ 2nd question: Clearly reduced, % of cases: (24.52%)
  SAQ 2nd question: Clearly reduced, cases: 355
  SAQ 2nd question: Same, % of cases: (36.46%)
  SAQ 2nd question: Same, cases: 528
  SAQ 2nd question: Slightly increased, % of cases: (2.76%)
  SAQ 2nd question: Slightly increased, cases: 40
  SAQ 2nd question: Slightly reduced, % of cases: (36.05%)
  SAQ 2nd question: Slightly reduced, cases: 522
  SAQ 3rd question: 1-2 times per week, % of cases: (36.05%)
  SAQ 3rd question: 1-2 times per week, cases: 522
  SAQ 3rd question: 1-3 times per day, % of cases: (2.76%)
  SAQ 3rd question: 1-3 times per day, cases: 40
  SAQ 3rd question: <1 time per week, % of cases: (24.52%)
  SAQ 3rd question: <1 time per week, cases: 355
  SAQ 3rd question: No onset, % of cases: (0.00%)
  SAQ 3rd question: No onset, cases: 0
  SAQ 3rd question: ≧3 times per week, % of cases: (36.46%)
  SAQ 3rd question: ≧3 times per week, cases: 528
  SAQ 3rd question: ≧4 times per day, % of cases: (0.21%)
  SAQ 3rd question: ≧4 times per day, cases: 3
  SAQ Question 1-3: Mildly limited, number of patients: 65
  SAQ Question 1-3: Mildly limited, percent of patients: (4.48%)
  SAQ Question 1-3: Moderately limited, number of patients: 14
  SAQ Question 1-3: Moderately limited, percent of patients: (0.97%)
  SAQ Question 1-3: Not limited, number of patients: 1131
  SAQ Question 1-3: Not limited, percent of patients: (78.00%)
  SAQ Question 1-3: Other reasons, number of patients: 9
  SAQ Question 1-3: Other reasons, percent of patients: (0.62%)
  SAQ Question 1-3: Severely limited, number of patients: 4
  SAQ Question 1-3: Severely limited, percent of patients: (0.28%)
  SAQ Question 1-3: Slightly limited, number of patients: 227

From patent publication US9211310B2, “Use of a Chinese medicine composition in preparing medicaments for treating secondary prevention of myocardial infarction” (TASLY PHARMACEUTICAL GROUP CO., LTD, priority 2010, dated 2015)
